Reference: ChEMBL document CHEMBL3351865, “N-aryl-2-aminobenzimidazoles: novel, efficacious, antimalarial lead compounds” (J Med Chem, 2014)
Converted amounts (≈) assume the structure as drawn.

How the values were obtained:
in vitro [1] = settings: human, THP-1 cells
Description: Selectivity index, ratio of IC50 for human THP1 cells to IC50 for Plasmodium falciparum

Plasmodium falciparum [2] = experiment: microbe, parasite or virus in culture; settings: NF54
Description: Antiplasmodial activity against Plasmodium falciparum NF54 by SYBR-green based assay

Plasmodium falciparum [3] = experiment: microbe, parasite or virus in culture; settings: K1
Description: Antiplasmodial activity against Plasmodium falciparum K1 by SYBR-green based assay

[4] = target: Voltage-gated inwardly rectifying potassium channel KCNH2 (Homo sapiens, UniProt Q12809)
physchem [5] = settings: buffer
Description: Aqueous solubility of the compound

physchem [6] = settings: buffer, pH 7.4
Description: Lipophilicity, logD of the compound at pH 7.4

in vitro [7] = settings: human, plasma
Description: Unbound fraction in human plasma

in vitro [8] = settings: human, microsomes
Description: Clearance in human microsomes

in vitro [9] = settings: human, hepatocytes
Description: Clearance in human hepatocytes assessed per million cells

Plasmodium falciparum [10] = experiment: microbe, parasite or virus in culture; settings: 7G8
Description: Antiplasmodial activity against Plasmodium falciparum 7G8 harboring mutations conferring drug-resistance by SYBR-green based assay

Plasmodium falciparum [11] = experiment: microbe, parasite or virus in culture; settings: W2
Description: Antiplasmodial activity against Plasmodium falciparum W2 harboring mutations conferring drug-resistance by SYBR-green based assay

Plasmodium falciparum [12] = experiment: microbe, parasite or virus in culture; settings: SB1-A6
Description: Antiplasmodial activity against Plasmodium falciparum SB1-A6 harboring mutations conferring drug-resistance by SYBR-green based assay

Plasmodium falciparum [13] = experiment: microbe, parasite or virus in culture; settings: Dd2
Description: Antiplasmodial activity against Plasmodium falciparum Dd2 harboring mutations conferring drug-resistance by SYBR-green based assay

Plasmodium berghei [14] = experiment: Antiplasmodial activity against Plasmodium berghei infected in mouse assessed as reduction in parasitemia at 100 mg/kg treated with four once daily doses; format: functional
Plasmodium berghei [15] = experiment: Antiplasmodial activity against Plasmodium berghei infected in mouse assessed as increase in mean survival days at 100 mg/kg treated with four once daily doses; format: functional
[16] = Half life in Plasmodium berghei infected mouse at 100 mg/kg treated with four once daily doses; format: ADME, organism-based; design: dose 100 mg/kg; settings: in vivo
[17] = Cmax in Plasmodium berghei infected mouse at 100 mg/kg treated with four once daily doses; format: ADME, organism-based; design: dose 100 mg/kg; settings: in vivo
[18] = AUClast in Plasmodium berghei infected mouse at 100 mg/kg treated with four once daily doses; format: ADME, organism-based; design: time 0 - last, dose 100 mg/kg; settings: plasma
Plasmodium berghei [19] = settings: dose 30 mg/kg
Description: Antiplasmodial activity against Plasmodium berghei infected in mouse assessed as increase in mean survival days at 30 mg/kg treated with four once daily doses

Plasmodium berghei [20] = settings: dose 50 mg/kg
Description: Antiplasmodial activity against Plasmodium berghei infected in mouse assessed as increase in mean survival days at 50 mg/kg treated with four once daily doses

in vivo [21] = settings: mouse, 30 mg/kg
Description: Half life in Plasmodium berghei infected mouse at 30 mg/kg treated with four once daily doses

in vivo [22] = settings: mouse, 30 mg/kg; remark: listed apart in the source
in vivo [23] = settings: mouse, plasma, 30 mg/kg
Description: AUClast in Plasmodium berghei infected mouse at 30 mg/kg treated with four once daily doses

in vivo [24] = settings: mouse, 50 mg/kg
Description: Half life in Plasmodium berghei infected mouse at 50 mg/kg treated with four once daily doses

in vivo [25] = settings: mouse, 50 mg/kg; remark: listed apart in the source
in vivo [26] = settings: mouse, plasma, 50 mg/kg
Description: AUClast in Plasmodium berghei infected mouse at 50 mg/kg treated with four once daily doses

Plasmodium berghei [27] = experiment: animal or person; settings: in Mus musculus, read-out: INH
Description: Antiplasmodial activity against Plasmodium berghei infected in mouse assessed as reduction in parasitemia at 30 mg/kg treated with four once daily doses

Plasmodium berghei [28] = experiment: animal or person; settings: in Mus musculus, read-out: INH; remark: listed apart in the source
Description: Antiplasmodial activity against Plasmodium berghei infected in mouse assessed as reduction in parasitemia at 50 mg/kg treated with four once daily doses

in vivo [29] = settings: rat, iv, 1 mg/kg
Description: Half life in rat at 1 mg/kg, iv

in vivo [30] = settings: rat, plasma, iv, 1 mg/kg
in vivo [31] = settings: rat, iv, 1 mg/kg; remark: listed apart in the source
Description: Clearance in rat at 1 mg/kg, iv

in vivo [32] = settings: rat, iv, 1 mg/kg; remark: listed apart in the source
Description: Volume of distribution at steady state in rat at 1 mg/kg, iv

in vivo [33] = settings: rat, po, 5 mg/kg
Description: Half life in rat at 5 mg/kg, po

in vivo [34] = settings: rat, po, 5 mg/kg; remark: listed apart in the source
in vivo [35] = settings: rat, po, 5 mg/kg; remark: listed apart in the source

Chain of Voltage-gated inwardly rectifying potassium channel KCNH2 (Q12809 whole entry): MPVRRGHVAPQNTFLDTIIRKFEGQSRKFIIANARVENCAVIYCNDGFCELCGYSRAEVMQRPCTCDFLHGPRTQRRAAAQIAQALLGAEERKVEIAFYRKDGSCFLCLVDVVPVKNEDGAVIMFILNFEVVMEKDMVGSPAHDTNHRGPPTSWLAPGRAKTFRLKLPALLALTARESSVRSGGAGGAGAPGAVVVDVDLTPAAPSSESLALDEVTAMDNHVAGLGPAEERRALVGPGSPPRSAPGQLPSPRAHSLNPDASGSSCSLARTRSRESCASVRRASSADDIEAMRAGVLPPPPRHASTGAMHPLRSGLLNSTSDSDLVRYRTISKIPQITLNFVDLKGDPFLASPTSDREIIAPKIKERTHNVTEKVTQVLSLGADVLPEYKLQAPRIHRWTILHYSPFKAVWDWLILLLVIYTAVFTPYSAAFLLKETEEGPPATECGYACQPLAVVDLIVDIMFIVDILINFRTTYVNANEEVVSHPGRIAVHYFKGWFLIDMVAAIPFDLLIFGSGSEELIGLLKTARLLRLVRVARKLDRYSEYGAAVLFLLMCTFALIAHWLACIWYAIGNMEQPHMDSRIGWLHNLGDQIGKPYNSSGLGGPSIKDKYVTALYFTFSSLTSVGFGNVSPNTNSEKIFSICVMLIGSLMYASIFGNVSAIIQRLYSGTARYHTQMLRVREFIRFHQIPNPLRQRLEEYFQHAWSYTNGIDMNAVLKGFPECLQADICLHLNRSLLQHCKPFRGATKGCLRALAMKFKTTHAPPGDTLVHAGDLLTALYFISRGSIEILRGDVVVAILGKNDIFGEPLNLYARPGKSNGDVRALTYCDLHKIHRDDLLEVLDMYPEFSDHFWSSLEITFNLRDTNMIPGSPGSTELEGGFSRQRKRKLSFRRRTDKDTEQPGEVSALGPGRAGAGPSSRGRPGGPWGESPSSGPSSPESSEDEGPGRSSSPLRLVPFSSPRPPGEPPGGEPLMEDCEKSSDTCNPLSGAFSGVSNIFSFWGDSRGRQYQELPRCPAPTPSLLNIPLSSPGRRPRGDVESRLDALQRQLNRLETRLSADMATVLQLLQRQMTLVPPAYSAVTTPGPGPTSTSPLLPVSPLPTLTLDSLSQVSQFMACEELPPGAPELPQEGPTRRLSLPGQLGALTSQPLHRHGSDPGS

Structure (SMILES): CN1CCN(c2ccc3nc(Nc4ccc(Br)cc4)[nH]c3c2)CC1
- selectivity ratio (in vitro [1]): > 1190
- IC50 (Plasmodium falciparum [2]): 210 nM
- IC50 (Plasmodium falciparum [3]): 390 nM

Structure (SMILES): CN1CCN(c2ccc3nc(Nc4ccccn4)[nH]c3c2)CC1
- selectivity ratio (in vitro [1]): > 86
- IC50 (Plasmodium falciparum [2]): > 500 nM
- IC50 (Plasmodium falciparum [3]): > 500 nM

Structure (SMILES): Cc1ccc(Nc2nc3ccc(N4CCN(C)CC4)cc3[nH]2)nc1
- IC50 [4]: 12700 nM
- selectivity ratio (in vitro [1]): > 385
- solubility (physchem [5]): 1170 µM (≈ 377 µg/mL)
- logD (physchem [6]): 2.2
- fraction unbound (in vitro [7]): 0.183
- microsomal CLint (in vitro [8]): 4.8 µL/min/mg
- hepatocyte CLint (in vitro [9]): 19.5 µL/min/1e6 cells
- IC50 (Plasmodium falciparum [2]): 130 nM
- IC50 (Plasmodium falciparum [3]): 270 nM
- IC50 (Plasmodium falciparum [10]): 307 nM
- IC50 (Plasmodium falciparum [11]): 437 nM
- IC50 (Plasmodium falciparum [12]): 86.2 nM
- IC50 (Plasmodium falciparum [13]): 201 nM

Structure (SMILES): CN1CCN(Cc2ccc3nc(Nc4ccc(C(F)(F)F)cn4)[nH]c3c2)CC1
- solubility (physchem [5]): > 1000 µM
- logD (physchem [6]): 3.2
- fraction unbound (in vitro [7]): 0.275
- microsomal CLint (in vitro [8]): < 4 µL/min/mg
- hepatocyte CLint (in vitro [9]): 7.5 µL/min/1e6 cells
- IC50 (Plasmodium falciparum [2]): 93 nM
- IC50 (Plasmodium falciparum [3]): 166 nM

Structure (SMILES): OCCN1CCN(c2ccc3nc(Nc4ccc(C(F)(F)F)cn4)[nH]c3c2)CC1
- selectivity ratio (in vitro [1]): > 1110
- IC50 (Plasmodium falciparum [2]): 130 nM
- IC50 (Plasmodium falciparum [3]): 210 nM

Structure (SMILES): CN1CCN(c2ccc3nc(Nc4ccc(C(F)(F)F)cn4)[nH]c3c2)CC1
- inhibition in vivo at 100 mg/kg (Plasmodium berghei [14]): 99.9%
- MSD (Plasmodium berghei [15]): 24 days
- half-life [16]: 4.9 h
- Cmax [17]: 6.1 µM
- AUC(0-t) [18]: 41.6 µM·h
- MSD (Plasmodium berghei [19]): 10 days
- MSD (Plasmodium berghei [20]): 15 days
- half-life (in vivo [21]): 3.7 h
- Cmax (in vivo [22]): 3.3 µM
- AUC(0-t) (in vivo [23]): 19.2 µM·h
- half-life (in vivo [24]): 5.4 h
- Cmax (in vivo [25]): 5 µM
- AUC(0-t) (in vivo [26]): 33.7 µM·h
- selectivity ratio (in vitro [1]): 890
- inhibition in vivo at 30 mg/kg (Plasmodium berghei [27]): 81.3%
- inhibition in vivo at 50 mg/kg (Plasmodium berghei [28]): 99.9%
- IC50 (Plasmodium falciparum [2]): 82 nM
- IC50 (Plasmodium falciparum [3]): 120 nM

Structure (SMILES): CN1CCN(c2ccc3nc(Nc4ccc(C(F)(F)F)nc4)[nH]c3c2)CC1
- selectivity ratio (in vitro [1]): > 500
- IC50 (Plasmodium falciparum [2]): > 500 nM
- IC50 (Plasmodium falciparum [3]): > 500 nM

Structure (SMILES): CN1CCN(c2cc3[nH]c(Nc4ccc(C(F)(F)F)cn4)nc3cn2)CC1
- selectivity ratio (in vitro [1]): 1030
- IC50 (Plasmodium falciparum [2]): 29 nM
- IC50 (Plasmodium falciparum [3]): 54 nM

Structure (SMILES): CN1CCN(c2cc(Cl)c3nc(Nc4ccc(Br)cn4)[nH]c3c2)CC1
- solubility (physchem [5]): > 1000 µM
- logD (physchem [6]): 3
- fraction unbound (in vitro [7]): 0.301
- microsomal CLint (in vitro [8]): < 4 µL/min/mg
- hepatocyte CLint (in vitro [9]): 9 µL/min/1e6 cells
- IC50 (Plasmodium falciparum [2]): 110 nM
- IC50 (Plasmodium falciparum [3]): 160 nM

Structure (SMILES): CN1CCN(c2nc3[nH]c(Nc4ccc(Br)cn4)nc3cc2F)CC1
- selectivity ratio (in vitro [1]): > 100
- IC50 (Plasmodium falciparum [2]): > 500 nM
- IC50 (Plasmodium falciparum [3]): > 500 nM

Structure (SMILES): Brc1ccc(Nc2nc3ccc(N4CCNCC4)cc3[nH]2)nc1
- MSD (Plasmodium berghei [20]): 11 days
- half-life (in vivo [24]): 4.5 h
- Cmax (in vivo [25]): 25.5 µM
- AUC(0-t) (in vivo [26]): 202 µM·h
- selectivity ratio (in vitro [1]): 961
- inhibition in vivo at 50 mg/kg (Plasmodium berghei [28]): 99.9%
- IC50 (Plasmodium falciparum [2]): 39 nM
- IC50 (Plasmodium falciparum [3]): 278 nM

Structure (SMILES): Brc1ccc(Nc2nc3ccc(N4CCOCC4)cc3[nH]2)nc1
- selectivity ratio (in vitro [1]): > 100
- IC50 (Plasmodium falciparum [2]): > 500 nM
- IC50 (Plasmodium falciparum [3]): > 500 nM

Structure (SMILES): CN1CCC(c2ccc3nc(Nc4ccc(C(F)(F)F)cn4)[nH]c3c2)CC1
- MSD (Plasmodium berghei [19]): 25 days
- MSD (Plasmodium berghei [20]): 30 days
- half-life (in vivo [29]): 14.9 h
- AUC (in vivo [30]): 6 µM·h
- clearance (in vivo [31]): 14.9 mL/min/kg
- Vd (in vivo [32]): 16.9 L/kg
- half-life (in vivo [33]): 19.2 h
- Cmax (in vivo [34]): 0.5 µM
- half-life (in vivo [21]): 9.3 h
- Cmax (in vivo [22]): 5.2 µM
- AUC(0-t) (in vivo [23]): 54 µM·h
- half-life (in vivo [24]): 18.5 h
- Cmax (in vivo [25]): 8.8 µM
- AUC(0-t) (in vivo [26]): 131 µM·h
- bioavailability (in vivo [35]): 79%
- solubility (physchem [5]): 121 µM (≈ 45.4 µg/mL)
- logD (physchem [6]): 3
- fraction unbound (in vitro [7]): 0.134
- microsomal CLint (in vitro [8]): < 4 µL/min/mg
- hepatocyte CLint (in vitro [9]): 4.7 µL/min/1e6 cells
- inhibition in vivo at 30 mg/kg (Plasmodium berghei [27]): 98.9%
- inhibition in vivo at 50 mg/kg (Plasmodium berghei [28]): 99.8%
- IC50 (Plasmodium falciparum [2]): 36 nM
- IC50 (Plasmodium falciparum [3]): 59 nM

Structure (SMILES): CN1CCC(c2ccc3nc(Nc4ccc(C(F)(F)F)cn4)[nH]c3c2)C1 (centres undefined)
- IC50 (Plasmodium falciparum [2]): 53 nM
- IC50 (Plasmodium falciparum [3]): 85 nM

Structure (SMILES): FC(F)(F)c1ccc(Nc2nc3ccc(N4CCN5CCCC5C4)cc3[nH]2)nc1 (centres undefined)
- selectivity ratio (in vitro [1]): 357
- IC50 (Plasmodium falciparum [2]): 56 nM
- IC50 (Plasmodium falciparum [3]): 119 nM

Structure (SMILES): CN1C2CCC1CC(c1ccc3nc(Nc4ccc(C(F)(F)F)cn4)[nH]c3c1)C2 (centres undefined)
- selectivity ratio (in vitro [1]): 308
- IC50 (Plasmodium falciparum [2]): 94 nM
- IC50 (Plasmodium falciparum [3]): 200 nM

Structure (SMILES): CN1CCN(C(=O)c2ccc3nc(Nc4ccc(Br)cn4)[nH]c3c2)CC1
- selectivity ratio (in vitro [1]): 548
- IC50 (Plasmodium falciparum [2]): 450 nM
- IC50 (Plasmodium falciparum [3]): > 500 nM

Structure (SMILES): Cc1nc(Nc2nc3ccc(N4CCN(C)CC4)cc3[nH]2)ccc1F
- selectivity ratio (in vitro [1]): > 1050
- IC50 (Plasmodium falciparum [2]): 48 nM
- IC50 (Plasmodium falciparum [3]): 110 nM
- IC50 (Plasmodium falciparum [10]): 98.8 nM
- IC50 (Plasmodium falciparum [11]): 106 nM

Structure (SMILES): Cc1nc(Nc2nc3cnc(N4CCN(C)CC4)cc3[nH]2)ccc1Cl
- selectivity ratio (in vitro [1]): 500
- IC50 (Plasmodium falciparum [2]): 44 nM
- IC50 (Plasmodium falciparum [3]): 110 nM

Structure (SMILES): CN1CCC(c2ccc3nc(Nc4ncc(C(F)(F)F)cc4Cl)[nH]c3c2)CC1
- IC50 (Plasmodium falciparum [2]): 80 nM
- IC50 (Plasmodium falciparum [3]): 130 nM

Structure (SMILES): Cc1nc(Nc2nc3cnc(N4CCN(C)CC4)cc3[nH]2)cc(C2CC2)c1F
- solubility (physchem [5]): 5.6 µM (≈ 2.14 µg/mL)
- logD (physchem [6]): 3.9
- fraction unbound (in vitro [7]): 0.051
- microsomal CLint (in vitro [8]): 21.8 µL/min/mg
- hepatocyte CLint (in vitro [9]): 11.3 µL/min/1e6 cells
- IC50 (Plasmodium falciparum [2]): 17 nM
- IC50 (Plasmodium falciparum [3]): 26 nM

Structure (SMILES): Cc1nc(Nc2nc3ccc(C4CCN(C)CC4)cc3[nH]2)cc(C2CC2)c1F
- selectivity ratio (in vitro [1]): 692
- IC50 (Plasmodium falciparum [2]): 13 nM
- IC50 (Plasmodium falciparum [3]): 30 nM

Structure (SMILES): C[C@@H]1CC[C@H]2[C@@H](C)C(=O)O[C@@H]3O[C@@]4(C)CC[C@@H]1[C@]32OO4 [ARTEMISININ]
- IC50 (Plasmodium falciparum [2]): 7.1 nM
- IC50 (Plasmodium falciparum [10]): 1.3 nM
- IC50 (Plasmodium falciparum [11]): 6.5 nM
- IC50 (Plasmodium falciparum [12]): 16.6 nM
- IC50 (Plasmodium falciparum [13]): 10.3 nM

Structure (SMILES): O=C1C(O)=C([C@H]2CC[C@H](c3ccc(Cl)cc3)CC2)C(=O)c2ccccc21 [ATOVAQUONE]
- IC50 (Plasmodium falciparum [3]): 2.3 nM
- IC50 (Plasmodium falciparum [10]): 2.3 nM
- IC50 (Plasmodium falciparum [12]): > 2000 nM
- IC50 (Plasmodium falciparum [13]): 2 nM

Structure (SMILES): CCc1nc(N)nc(N)c1-c1ccc(Cl)cc1 [PYRIMETHAMINE]
- IC50 (Plasmodium falciparum [12]): 10.9 nM
